Measured values from PubChem BioAssay AID226 (DTP/NCI, 2004).
Several values for one entry are separate records, joined by “and”; a condition that tells them apart may be missing. Equal entries are not always repeated. Toxic doses and inconclusive results are not listed.

Test system: B6C3F1 mice, intracerebral ependymoblastoma, median survival T/C
Test: NCI In Vivo Anticancer Drug Screen. Data for tumor model Ependymoblastoma (intracerebral) in B6C3F1 mice
Settings: endpoint: median survival time, higher = longer survival
Method: The antitumor activity of compounds was measured in mice bearing transplantable tumors. Survival or tumor size were measured and the results are expressed as the measurement made in the treated group (T) divided by the measurement made in the vehicle treated control group (C). The tumor model used in this assay is Ependymoblastoma (intracerebral) in B6C3F1 mice

[1] = dose: 8.0 mg/kg/injection, schedule: Q01DX005 (ip), vehicle: saline with Tween-80
[2] = dose: 16.0 mg/kg/injection, schedule: Q01DX005 (ip), vehicle: saline with Tween-80
[3] = dose: 32.0 mg/kg/injection, schedule: Q01DX005 (ip), vehicle: saline with Tween-80
[4] = dose: 64.0 mg/kg/injection, schedule: Q01DX005 (ip), vehicle: Klucel (hydroxypropylcellulose) (HPC)
[5] = dose: 64.0 mg/kg/injection, schedule: Q01DX005 (ip), vehicle: saline with Tween-80
[6] = dose: 128.0 mg/kg/injection, schedule: Q01DX005 (ip), vehicle: Klucel (hydroxypropylcellulose) (HPC)
[7] = dose: 256.0 mg/kg/injection, schedule: Q01DX005 (ip), vehicle: Klucel (hydroxypropylcellulose) (HPC)

## O=c1n(CC2CO2)c(=O)n(CC2CO2)c(=O)n1CC1CO1 (configuration not stated)
dose: 16.4 mg/kg/injection, schedule: Q01DX004 (ip), vehicle: saline
  T/C: 113 % of control
dose: 16.4 mg/kg/injection, schedule: Q01DX009 (ip), vehicle: saline
  T/C: 107 % of control
dose: 20.0 mg/kg/injection, schedule: Q01DX009 (ip), vehicle: saline
  T/C: 117 % of control and 119 % of control
dose: 20.5 mg/kg/injection, schedule: Q01DX004 (ip), vehicle: saline
  T/C: 111 % of control
dose: 20.5 mg/kg/injection, schedule: Q01DX009 (ip), vehicle: saline
  T/C: 112 % of control
dose: 25.0 mg/kg/injection, schedule: Q01DX005 (ip), vehicle: saline with Tween-80
  T/C: 98 % of control
dose: 25.6 mg/kg/injection, schedule: Q01DX004 (ip), vehicle: saline
  T/C: 107 % of control
dose: 25.6 mg/kg/injection, schedule: Q01DX009 (ip), vehicle: saline
  T/C: 113 % of control
dose: 30.0 mg/kg/injection, schedule: Q01DX009 (ip), vehicle: saline
  T/C: 165 % of control
dose: 32.0 mg/kg/injection, schedule: Q01DX004 (ip), vehicle: saline
  T/C: 115 % of control
dose: 32.0 mg/kg/injection, schedule: Q01DX009 (ip), vehicle: saline
  T/C: 121 % of control
dose: 49.2 mg/kg/injection, schedule: Q01DX001 (ip), vehicle: saline
  T/C: 95 % of control
dose: 50.0 mg/kg/injection, schedule: Q01DX009 (ip), vehicle: saline
  T/C: 113 % of control
dose: 61.4 mg/kg/injection, schedule: Q01DX001 (ip), vehicle: saline
  T/C: 109 % of control
dose: 76.8 mg/kg/injection, schedule: Q01DX001 (ip), vehicle: saline
  T/C: 112 % of control
dose: 96.0 mg/kg/injection, schedule: Q01DX001 (ip), vehicle: saline
  T/C: 106 % of control
dose: 120.0 mg/kg/injection, schedule: Q01DX001 (ip), vehicle: saline
  T/C: 121 % of control
dose: 150.0 mg/kg/injection, schedule: Q01DX001 (ip), vehicle: saline
  T/C: 119 % of control

## CC(=O)Nc1ccn(C2OC(COC(C)=O)C(OC(C)=O)C2OC(C)=O)c(=O)n1 (configuration not stated)
dose: 150.0 mg/kg/injection, schedule: Q01DX005 (ip), vehicle: saline with Tween-80
  T/C: 105 % of control
dose: 300.0 mg/kg/injection, schedule: Q01DX005 (ip), vehicle: saline with Tween-80
  T/C: 112 % of control
dose: 600.0 mg/kg/injection, schedule: Q01DX005 (ip), vehicle: saline with Tween-80
  T/C: 107 % of control
dose: 1200.0 mg/kg/injection, schedule: Q01DX005 (ip), vehicle: saline with Tween-80
  T/C: 120 % of control

## CC(=O)OC1COC(NC(=O)N(CCCl)N=O)C(OC(C)=O)C1OC(C)=O (configuration not stated)
dose: 0.18 mg/kg/injection, schedule: Q01DX009 (ip), vehicle: saline with Tween-80
  T/C: 103 % of control
dose: 0.38 mg/kg/injection, schedule: Q01DX009 (ip), vehicle: saline with Tween-80
  T/C: 117 % of control
dose: 0.75 mg/kg/injection, schedule: Q01DX005 (ip), vehicle: saline with Tween-80
  T/C: 113 % of control
dose: 1.5 mg/kg/injection, schedule: Q01DX005 (ip), vehicle: saline with Tween-80
  T/C: 96 % of control and 121 % of control
dose: 3.0 mg/kg/injection, schedule: Q01DX005 (ip), vehicle: saline with Tween-80
  T/C: 91 % of control
dose: 3.0 mg/kg/injection, schedule: Q01DX009 (ip), vehicle: saline with Tween-80
  T/C: 178 % of control
dose: 6.0 mg/kg/injection, schedule: Q01DX005 (ip), vehicle: saline with Tween-80
  T/C: 107 % of control
dose: 6.0 mg/kg/injection, schedule: Q01DX009 (ip), vehicle: saline with Tween-80
  T/C: 165 % of control
dose: 12.0 mg/kg/injection, schedule: Q01DX005 (ip), vehicle: saline with Tween-80
  T/C: 158 % of control

## COc1cc([C@@H]2c3cc4c(cc3[C@@H](OC3OC5CO[C@@H](c6cccs6)OC5C(O)C3O)[C@H]3COC(=O)[C@H]23)OCO4)cc(OC)c1O (some centres not stated)
dose: 0.25 mg/kg/injection, schedule: Q01DX005 (ip), vehicle: saline
  T/C: 103 % of control
dose: 0.5 mg/kg/injection, schedule: Q01DX005 (ip), vehicle: saline
  T/C: 90 % of control
dose: 1.0 mg/kg/injection, schedule: Q12HX006 (ip), vehicle: saline
  T/C: 92 % of control
dose: 2.0 mg/kg/injection, schedule: Q01DX005 (ip), vehicle: saline
  T/C: 118 % of control
dose: 2.0 mg/kg/injection, schedule: Q01DX005 (oral), vehicle: saline
  T/C: 122 % of control
dose: 2.0 mg/kg/injection, schedule: Q12HX002 (ip), vehicle: saline
  T/C: 93 % of control
dose: 2.0 mg/kg/injection, schedule: Q12HX006 (ip), vehicle: saline
  T/C: 119 % of control
dose: 4.0 mg/kg/injection, schedule: Q01DX001 (ip), vehicle: saline
  T/C: 100 % of control and 105 % of control
dose: 4.0 mg/kg/injection, schedule: Q01DX005 (oral), vehicle: saline
  T/C: 124 % of control
dose: 4.0 mg/kg/injection, schedule: Q12HX002 (ip), vehicle: saline
  T/C: 93 % of control
dose: 4.0 mg/kg/injection, schedule: Q12HX006 (ip), vehicle: saline
  T/C: 119 % of control
dose: 8.0 mg/kg/injection, schedule: Q01DX001 (ip), vehicle: saline
  T/C: 110 % of control and 111 % of control and 118 % of control
dose: 8.0 mg/kg/injection, schedule: Q01DX005 (oral), vehicle: saline
  T/C: 113 % of control
dose: 8.0 mg/kg/injection, schedule: Q12HX002 (ip), vehicle: saline
  T/C: 90 % of control
dose: 8.0 mg/kg/injection, schedule: Q12HX006 (ip), vehicle: saline
  T/C: 122 % of control
dose: 16.0 mg/kg/injection, schedule: Q01DX001 (ip), vehicle: saline
  T/C: 112 % of control and 115 % of control and 118 % of control
dose: 16.0 mg/kg/injection, schedule: Q01DX001 (oral), vehicle: saline
  T/C: 94 % of control and 101 % of control
dose: 16.0 mg/kg/injection, schedule: Q12HX002 (ip), vehicle: saline
  T/C: 93 % of control
dose: 32.0 mg/kg/injection, schedule: Q01DX001 (ip), vehicle: saline
  T/C: 104 % of control and 109 % of control and 117 % of control
dose: 32.0 mg/kg/injection, schedule: Q01DX001 (oral), vehicle: saline
  T/C: 109 % of control and 110 % of control (2×)
dose: 64.0 mg/kg/injection, schedule: Q01DX001 (oral), vehicle: saline
  T/C: 104 % of control and 109 % of control and 115 % of control
dose: 128.0 mg/kg/injection, schedule: Q01DX001 (oral), vehicle: saline
  T/C: 97 % of control and 109 % of control

## Nc1ncnc2nc[nH]c12
dose: 4.0 mg/kg/injection, schedule: Q01DX005 (ip), vehicle: saline with Tween-80
  T/C: 106 % of control and 113 % of control
[1]
  T/C: 100 % of control and 114 % of control
[2]
  T/C: 107 % of control and 118 % of control
[3]
  T/C: 101 % of control and 102 % of control
[4]
  T/C: 108 % of control
[5]
  T/C: 100 % of control and 117 % of control
[6]
  T/C: 107 % of control
[7]
  T/C: 96 % of control

## CCCCCC(=O)O[C@]1(C(C)=O)CC[C@H]2[C@@H]3CCC4=CC(=O)CC[C@]4(C)[C@H]3CC[C@@]21C
dose: 8.0 mg/kg/injection, schedule: Q01DX005 (ip), vehicle: Klucel (hydroxypropylcellulose) (HPC)
  T/C: 105 % of control
dose: 8.0 mg/kg/injection, schedule: Q01DX005 (ip), vehicle: saline + alcohol
  T/C: 96 % of control
[1]
  T/C: 95 % of control and 105 % of control
dose: 16.0 mg/kg/injection, schedule: Q01DX005 (ip), vehicle: Klucel (hydroxypropylcellulose) (HPC)
  T/C: 106 % of control
dose: 16.0 mg/kg/injection, schedule: Q01DX005 (ip), vehicle: saline + alcohol
  T/C: 106 % of control
[2]
  T/C: 115 % of control and 89 % of control
dose: 32.0 mg/kg/injection, schedule: Q01DX005 (ip), vehicle: Klucel (hydroxypropylcellulose) (HPC)
  T/C: 87 % of control
dose: 32.0 mg/kg/injection, schedule: Q01DX005 (ip), vehicle: saline + alcohol
  T/C: 102 % of control
[3]
  T/C: 98 % of control and 117 % of control
[4]
  T/C: 101 % of control
dose: 64.0 mg/kg/injection, schedule: Q01DX005 (ip), vehicle: saline + alcohol
  T/C: 104 % of control
[5]
  T/C: 99 % of control and 105 % of control
[6]
  T/C: 86 % of control
dose: 128.0 mg/kg/injection, schedule: Q01DX005 (ip), vehicle: saline + alcohol
  T/C: 102 % of control
dose: 128.0 mg/kg/injection, schedule: Q01DX005 (ip), vehicle: saline with Tween-80
  T/C: 104 % of control and 107 % of control
[7]
  T/C: 95 % of control
dose: 256.0 mg/kg/injection, schedule: Q01DX005 (ip), vehicle: saline + alcohol
  T/C: 102 % of control
dose: 256.0 mg/kg/injection, schedule: Q01DX005 (ip), vehicle: saline with Tween-80
  T/C: 98 % of control and 107 % of control
dose: 512.0 mg/kg/injection, schedule: Q01DX005 (ip), vehicle: Klucel (hydroxypropylcellulose) (HPC)
  T/C: 95 % of control
dose: 512.0 mg/kg/injection, schedule: Q01DX005 (ip), vehicle: saline + alcohol
  T/C: 113 % of control
dose: 512.0 mg/kg/injection, schedule: Q01DX005 (ip), vehicle: saline with Tween-80
  T/C: 95 % of control and 105 % of control
